± gives the expanded uncertainty stated by the source.
Conditions: 298 K; 101.33 kPa; Crystal; X-ray diffraction

O=P([O-])([O-])[O-].[Eu+3] [europium phosphate]
mass density: 1476 ± 2 kg/m3

O=P([O-])([O-])[O-].[Sm+3] [samarium phosphate]
mass density: 1428 ± 2 kg/m3

— the NIST ThermoML archive (doi:10.1016/j.tca.2006.03.023)
